According to PubChem BioAssay AID179 (DTP/NCI, 2004):
Calls of active or inactive are those of the source.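 Rule for the calls: active = compounds giving half or more protection of infected cells from virus-caused growth loss, again on retest; inactive = the rest.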

Test system: CEM cells HIV-1 protection, formazan growth assay
Test: NCI AIDS Antiviral Assay
Settings: for IC50: measured here: growth of uninfected CEM cells
Method in brief: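 Category rules: moderately active means at least 50% protection on retest, and confirmed active means 100% protection reproducibly. The underlying data came from a formazan growth assay in HIV-1-infected CEM cells.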

Row | Compound | EC50 [µM] | IC50 [µM] | outcome
1 | O=C(OCc1ccccc1)N(Cc1ccccc1)S(=O)(=O)c1ccccc1 | > 200 | > 200 | –
2 | CCCCn1c(-c2ccccc2)cs/c1=N\NC(=O)Cn1c(C)nc2ccccc21 | > 85.1 | 34.7 | –
3 | c1ccc(CN[C@]23C4C5CC6C7C5C2C7[C@@](NCc2ccccc2)(C64)N3Cc2ccccc2)cc1 (some centres not stated) | > 200 | 105 | –
4 | COC(=O)c1cc(=O)nc(N/N=C/c2ccc(C)cc2)s1 | > 44.7 | 30.9 | –
5 | COC(=O)c1nn(C(=N)c2ccc(Cl)cc2)c2c1CCC2 | > 813 | > 813 | –
6 | CC(C)(CN(Cc1ccccc1)Cc1ccccc1)[N+](=O)[O-] | – | – | inactive
7 | C1=CC2C(C3CN(c4ccccc4)N=C13)C1C3C4C=CC21C=CC43 (configuration not stated) | > 200 | > 200 | –
8 | CCCC/C(=N\OC(=O)N(C)C)c1ccccc1 | > 200 | > 100 | –
9 | CCOC(=O)C(CCCCS(=O)(=O)O)C(=O)OCC | > 200 | > 200 | –
10 | COC(=O)C1CC23CCCN4CCC5(c6ccccc6N(C=O)C15CC2)C43 (configuration not stated) | > 70.8 | > 70.8 | –
11 | N#CC(C#N)=C(N)/C(C#N)=C/c1ccc(O)c(O)c1 | > 200 | 61.7 | –
12 | O=[n+]1c2c(n([O-])c3ccc4ccccc4c31)-c1cccc3cccc-2c13 | > 100 | > 100 | –
13 | NCCCCCCn1c(-c2ccc(Br)cc2)csc1=Nc1ccccc1 | > 200 | 3.55 | –
14 | CCOc1ccc(NC(=O)C(=O)CC(=O)c2c[n+](=O)c3cc(C)c(C)cc3n2[O-])cc1 | > 8.51 | > 8.51 | –
15 | COc1cc2c(c(OC)c1OC)-c1ccc(O)cc1C(NC(C)=O)CC2 (configuration not stated) | > 2 | 0.0603 | –
16 | Cc1ccc(S(=O)(=O)N/N=C/CN2C(=O)c3ccccc3C2=O)cc1 | 182 | 191 | –
17 | CCCCC1OC2O[C@]3(C)CCC4C(C)CCC([C@H]1C)C24OO3 (some centres not stated) | > 95.5 | 22.4 | –
18 | Cc1ccc(/C(C#N)=C/c2ccccc2)cc1 | > 200 | 28.8 | –
19 | c1ccc(N=C2c3ccsc3C(=Nc3ccccc3)c3ccsc32)cc1 | > 200 | 2.51 | –
20 | CC1COC(c2cn[nH]c2C(N)=O)C1O (configuration not stated) | > 200 | > 200 | –
21 | CCOC(=O)/C(=C\c1ccc(OC)cc1)C(C)=O | > 275 | 117 | –
22 | CCOC(=O)CCC(=O)C1c2cccc(O)c2C(=O)c2c(O)cc(C)cc21 (configuration not stated) | > 37.2 | 1.35 | –

Row | Compound | EC50 [µM] | IC50 [µM] | outcome
23 | CCC1=CC2CN3CCc4c([nH]c5ccccc45)C(C(=O)OC)(C2)C13 (configuration not stated) | – | – | inactive
24 | CS(=O)(=O)c1ccc(-c2cc(-c3ccc(S(C)(=O)=O)cc3)[n+](-c3cc(-c4ccc(S(C)(=O)=O)cc4)c([O-])c(-c4ccc(S(C)(=O)=O)cc4)c3)c(-c3ccc(S(C)(=O)=O)cc3)c2)cc1 | > 7.59 | > 7.59 | –
25 | NC12CCC(CC1=O)C2 (configuration not stated) | > 200 | > 200 | –
26 | S=C1CC(N2CCCC2)=Nc2ccccc2N1 | > 200 | > 200 | –
27 | CN(C)c1ccc(/C=C(\NC(=O)c2ccccc2)C2=NC(CCC(=O)O)C(=O)O2)cc1 (configuration not stated) | > 50.1 | > 50.1 | –
28 | O=C(O)CN(CCNC(=O)OCC1c2ccccc2-c2ccccc21)CCNC(=O)OCC1c2ccccc2-c2ccccc21 | > 200 | 39.8 | –
29 | COc1ccc(C2C(C#N)=C(O)NC(O)=C2C#N)cc1OC | > 120 | > 120 | –
30 | N#CC1=C(O)NC(O)=C(C#N)C1c1ccc(Cl)cc1Cl | > 17 | > 17 | –
31 | [Cu+2].[O-]/N=C/c1ccc(O)cc1[O-].[O-]/N=C/c1ccc(O)cc1[O-] | > 26.9 | 13.2 | –
32 | Cc1cc(NS(=O)(=O)c2ccc(NC(=O)c3ccc4[nH]c5ccccc5c(=O)c4c3)cc2)no1 | > 200 | 93.3 | –
33 | Cc1ccc(NC2=CC(=O)C(=O)c3ccccc32)cc1 | > 27.5 | 20.4 | –
34 | O=C1C(=O)c2ccccc2C(O)=C1C1CCCCC1 | > 263 | 40.7 | –
35 | COC(=O)C(COC(=O)/C=C/c1ccc(OC(C)=O)c(OC(C)=O)c1)OC(=O)/C=C/c1ccc(OC(C)=O)c(OC(C)=O)c1 (configuration not stated) | > 200 | 25.7 | –
36 | COc1ccc2[nH]c3c(c2c1)COc1ccccc1C3=O | > 200 | > 200 | –
37 | COc1cc(OC)nc(NC(=O)NS(=O)(=O)c2cccc3ncn(C)c(=O)c23)n1 | – | – | inactive
38 | Cc1[nH]nc2c1NC(=O)OC(C)(C)C2 | > 479 | > 479 | –
39 | O=C(Oc1ccc(N=Cc2ccc3c(c2)OCO3)cc1)Oc1ccc(N=Cc2ccc3c(c2)OCO3)cc1 | – | – | inactive
40 | CCC/C(=N/NC(=O)C(N)=O)C(CC)C(=O)CCC(=O)N(Cc1ccccc1)Cc1ccccc1 (configuration not stated) | > 525 | > 525 | –
41 | CCCCCCC1OC(C(=O)OCCCC)C(C(=O)OCCCC)O1 (configuration not stated) | > 200 | > 200 | –
42 | CC(OC(C)(C)C)[C@H](NC(=O)OCC(Cl)(Cl)Cl)C(=O)O (some centres not stated) | > 200 | > 200 | –
43 | Cc1ccc(-c2c(C#N)c(-c3ccccc3)c(C#N)c(=O)n2NS(=O)(=O)c2ccccc2)cc1 | > 200 | 69.2 | –
